Assay results published in patent US20260334439A1, “BCAT2 INHIBITORS” (Agios Pharmaceuticals, Inc., priority 2023, published 2026).
pIC50: −log10 of the molar value.

These molecules were tested against T1, BCAT2 (Homo sapiens, UniProt O15382) (assay: BCAT2 in vitro enzyme inhibition assay (hBCAT2, glutamate dehydrogenase/diaphorase/resazurin coupled fluorescence read)). Details: hBCAT2, 1 h preincubation at 25° C., one hour reaction; average where tested multiple times.
T1 sequence (O15382 28-392): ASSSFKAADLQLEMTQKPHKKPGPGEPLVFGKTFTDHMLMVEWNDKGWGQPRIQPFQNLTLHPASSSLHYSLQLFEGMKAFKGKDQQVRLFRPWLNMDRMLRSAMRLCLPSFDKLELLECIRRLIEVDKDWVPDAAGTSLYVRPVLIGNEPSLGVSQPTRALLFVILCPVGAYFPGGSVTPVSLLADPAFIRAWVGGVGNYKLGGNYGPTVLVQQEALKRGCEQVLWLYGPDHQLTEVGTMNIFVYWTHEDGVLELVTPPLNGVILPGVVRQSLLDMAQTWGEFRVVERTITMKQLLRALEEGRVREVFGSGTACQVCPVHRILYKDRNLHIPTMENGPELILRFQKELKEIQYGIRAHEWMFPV
Type: biochemical
Protocol: • 2×Buffer: 200 mM Tris pH 8.0, 300 mM NaCl, 0.1% BSA • 1.67×hBCAT2 Enzyme Mix: 0.33 μg/mL hBCAT2, 1× Buffer • 2.5×Substrate Mix: 460 µM L-leucine, 420 µM α-KetoGlutarate, 10 U/mL glutamate dehydrogenase, 10 mM NAD, […] diaphorase, […] Resazurin
BCAT2 enzyme stock solution was diluted to prepare a 1.67×hBCAT2 Enzyme Mix. 1 μL of test compound was first added to the reaction wells followed by 30 μL of 1.67×hBCAT2 Enzyme Mix and incubated at room temperature (25° C.) for one hour. Meanwhile the Substrate Mix was prepared. The reaction was initiated by the addition of 20 μL of the 2.5×Substrate Mix, bringing the final reaction mix of all components to 1×. Reactions were quenched after one hour by the addition of 25 μL of 6% SDS and reaction progress was measured via fluorescence read (Ex 540/Em 590).
Test compounds were prepared at 50×final concentration in DMSO, 1 to 3 dilutions were made for 10 points. The compounds were added to the assay as a 1 to 50 dilution (1 μL in 50 μL) to yield a top assay final concentration of 100 μM, decreasing 3-fold for 10 points. Each compound dilution series test also included an assay max (1 μL DMSO Added in lieu of compound, Full Reaction Components Included) and Min (1 μL DMSO Added in lieu of compound, 30 μl of 1.67×hBCAT2 Enzyme Mix replated by 30 μL of 1×Buffer). All tests were performed in technical duplicate.
Where a compound was tested multiple times, the average value of the tests is reported.

SMILES	pIC50
CN1C[C@@H](N2Cc3ccc(F)cc3C2=O)C[C@@H](n2c(-c3ccccc3OCCO)nc3cnc(-c4nc[nH]n4)cc32)C1 [Example 198, 6-fluoro-2-((3S,5R)-5-(2-(2-(2-hydroxyethoxy)phenyl)-6-(1H-1,2,4-triazol-3-yl)-1H-imidazo[4,5-c]pyridin-1-yl)-1-methylpiperidin-3-yl)isoindolin-1-one]	6.30 to 7.00
CO[C@@H]1C[C@@H](NC(=O)c2cc(F)ccn2)C[C@@H](n2c(-c3ccccc3F)nc3ccc(-c4nc[nH]n4)cc32)C1 [Example 220, 4-fluoro-N-((1R,3S,5S)-3-(2-(2-fluorophenyl)-6-(1H-1,2,4-triazol-3-yl)-1H-benzo[d]imid-azol-1-yl)-5-methoxycyclohex-yl)picolinamide]	< 6.00
CC(C)COc1ccc(Cl)cc1C(=O)N[C@H]1CCC[C@@H](n2c(-c3ncccc3F)nc3cnc(-c4nc[nH]n4)cc32)C1 [Example 48, 5-chloro-N-((1S,3R)-3-(2-(3-fluoropyridin-2-yl)-6-(1H-1,2,4-triazol-3-yl)-1H-imidazo[4,5-c]pyridin-1-yl)cyclohexyl)-2-isobutoxybenzamide]	> 7.00
O=C(N[C@H]1CCC[C@@H](n2c(-c3ccccc3OC(F)F)nc3cnc(-c4nc[nH]n4)cc32)C1)c1cc(Cl)ccn1 [compound 52]	> 7.00
CCN1C[C@@H](NC(=O)c2cc(F)ccn2)C[C@@H](n2c(-c3ccccc3F)nc3cnc(-c4nc[nH]n4)cc32)C1 [Example 149, N-((3S,5R)-1-ethyl-5-(2-(2-fluorophenyl)-6-(1H-1,2,4-triazol-3-yl)-1H-imidazo[4,5-c]pyridin-1-yl)piperidin-3-yl)-4-fluoropicolinamide]	6.00 to 6.30
COc1ccc(Cl)cc1C(=O)N[C@@H]1CCCC[C@H](n2c(-c3c(F)cccc3OC)nc3cnc(-c4nc[nH]n4)cc32)[C@H]1O [Example 109, 5-chloro-N-((1R,2S,3S)-3-(2-(2-fluoro-6-methoxyphenyl)-6-(1H-1,2,4-triazol-3-yl)-1H-imidazo[4,5-c]pyridin-1-yl)-2-hydroxycycloheptyl)-2-methoxybenzamide]	6.00 to 6.30
Nc1ccc(Cl)cc1C(=O)N[C@H]1CCC[C@@H](n2c(-c3ccccc3F)nc3cnc(-c4nc[nH]n4)cc32)C1 [Example 41, 2-amino-5-chloro-N-((1S,3R)-3-(2-(2-fluorophenyl)-6-(1H-1,2,4-triazol-3-yl)-1H-imidazo[4,5-c]pyridin-1-yl)cyclohexyl)benzamide]	6.30 to 7.00
CN1C[C@@H](NC(=O)c2cc(Cl)ccn2)C[C@@H](n2c(-c3ccccc3OC(F)F)nc3cnc(-c4nc[nH]n4)cc32)C1 [compound 142]	6.30 to 7.00
CN1C[C@H](NC(=O)c2cc(Cl)ccn2)C[C@H](n2c(-c3ccccc3OCCO)nc3cnc(-c4ncccn4)cc32)C1 [Example 164, 4-chloro-N-((3R,5S)-5-(2-(2-(2-hydroxyethoxy)phenyl)-6-(pyrimidin-2-yl)-1H-imidazo[4,5-c]pyridin-1-yl)-1-methylpiperidin-3-yl)picolinamide]	> 7.00
O=C1c2cc(Cl)ccc2OCCN1[C@H]1CCC[C@@H](n2c(-c3ccccc3F)nc3cnc(-c4nc[nH]n4)cc32)C1 [Example 216, 7-chloro-4-((1S,3R)-3-(2-(2-fluorophenyl)-6-(1H-1,2,4-triazol-3-yl)-1H-imidazo[4,5-c]pyridin-1-yl)cyclohexyl)-3,4-dihydrobenzo[f][1,4]oxazepin-5(2H)-one]	< 6.00
CN1C[C@H](NC(=O)c2cc(F)ccc2F)C[C@H](n2c(-c3ccccc3OCCO)nc3cnc(-n4nccn4)cc32)C1 [Example 155, 2,5-difluoro-N-((3R,5S)-5-(2-(2-(2-hydroxyethoxy)phenyl)-6-(2H-1,2,3-triazol-2-yl)-1H-imidazo[4,5-c]pyridin-1-yl)-1-methylpiperidin-3-yl)benzamide]	> 7.00
CN1CC(NC(=O)c2cc(F)ccc2F)CC(n2c(-c3ncccc3F)nc3cnc(-c4nc[nH]n4)cc32)C1 (stereo not shown) [Example 146, 2,5-difluoro-N-(5-(2-(3-fluoropyridin-2-yl)-6-(1H-1,2,4-triazol-3-yl)-1H-imidazo[4,5-c]pyridin-1-yl)-1-methylpiperidin-3-yl)benzamide]	6.30 to 7.00
CN1C[C@H](NC(=O)c2cc(F)ccn2)C[C@H](n2c(-c3ccccc3OCCO)nc3cnc(-c4ncccn4)cc32)C1 [Example 163, 4-fluoro-N-((3R,5S)-5-(2-(2-(2-hydroxyethoxy)phenyl)-6-(pyrimidin-2-yl)-1H-imidazo[4,5-c]pyridin-1-yl)-1-methylpiperidin-3-yl)picolinamide]	> 7.00
O=C(N[C@H]1C[C@@H](n2c(-c3ccccc3OCCO)nc3ccc(-c4nc[nH]n4)cc32)CC(F)(F)C1)c1cc(F)ccn1 [Example 232, N-((1S,5R)-3,3-difluoro-5-(2-(2-(2-hydroxyethoxy)phenyl)-6-(1H-1,2,4-triazol-3-yl)-1H-benzo[d]imidazol-1-yl)cyclohexyl)-4-fluoropicolinamide]	6.30 to 7.00

Further lines, results first:

pIC50	SMILES
> 7.00	COc1ccc(F)cc1C(=O)N[C@H]1CCC[C@@H](n2c(-c3ccccc3F)nc3cnc(-c4nc[nH]n4)cc32)C1 [Example 8, 5-fluoro-N-((1S,3R)-3-(2-(2-fluorophenyl)-6-(1H-1,2,4-triazol-3-yl)-1H-imidazo[4,5-c]pyridin-1-yl)cyclohexyl)-2-methoxybenzamide]
> 7.00	N#Cc1ccccc1-c1nc2cnc(-c3nc(C(F)(F)F)co3)cc2n1[C@@H]1CCC[C@H](NC(=O)c2cc(F)ccc2F)C1 [Example 101, N-((1S,3R)-3-(2-(2-cyanophenyl)-6-(4-(trifluoromethyl)oxazol-2-yl)-1H-imidazo[4,5-c]pyridin-1-yl)cyclohexyl)-2,5-difluorobenzamide]
> 7.00	O=C(N[C@H]1CCC[C@@H](n2c(-c3ccccc3F)nc3ccc(-c4nc[nH]n4)cc32)[C@@H]1O)c1cc(F)ccc1F [Example 225, 2,5-difluoro-N-((1S,2R,3R)-3-(2-(2-fluorophenyl)-6-(1H-1,2,4-triazol-3-yl)-1H-benzo[d]imid-azol-1-yl)-2-hydroxycyclohex-yl)benzamide]
> 7.00	CN1C[C@H](NC(=O)c2cc(Cl)ccn2)C[C@H](n2c(-c3ccccc3OCCO)nc3cnc(-n4nccn4)cc32)C1 [Example 157, 4-chloro-N-((3R,5S)-5-(2-(2-(2-hydroxyethoxy)phenyl)-6-(2H-1,2,3-triazol-2-yl)-1H-imidazo[4,5-c]pyridin-1-yl)-1-methylpiperidin-3-yl)picolinamide]
> 7.00	O=C(N[C@H]1CCC[C@@H](n2c(-c3ccccc3F)nc3cnc(-c4nc[nH]n4)cc32)[C@@H]1O)c1cc(Cl)ccn1 [Example 103, 4-chloro-N-((1S,2R,3R)-3-(2-(2-fluorophenyl)-6-(1H-1,2,4-triazol-3-yl)-1H-imidazo[4,5-c]pyridin-1-yl)-2-hydroxycyclohexyl)picolinamide]
> 7.00	O=C(N[C@H]1CCC[C@@H](n2c(-c3ccccc3F)nc3cnc(-c4nc[nH]n4)cc32)C1)c1cc(Cl)cc[n+]1[O-] [Example 67, 4-chloro-2-(((1S,3R)-3-(2-(2-fluorophenyl)-6-(1H-1,2,4-triazol-3-yl)-1H-imidazo[4,5-c]pyridin-1-yl)cyclohexyl)carbamoyl)pyridine 1-oxide]
> 7.00	N#Cc1ccccc1-c1nc2cnc(-c3nc[nH]n3)cc2n1[C@@H]1CCC[C@H](N2COc3ccc(F)cc3C2=O)C1 [Example 210, 2-(1-((1R,3S)-3-(6-fluoro-4-oxo-2H-benzo[e][1,3]oxazin-3(4H)-yl)cyclohexyl)-6-(1H-1,2,4-triazol-3-yl)-1H-imidazo[4,5-c]pyridin-2-yl)benzonitrile]
> 7.00	Cc1coc(-c2cc3c(cn2)nc(-c2ccccc2F)n3[C@@H]2CCC[C@H](NC(=O)c3cc(F)ccc3F)[C@H]2O)n1 [Example 125, 2,5-difluoro-N-((1S,2R,3R)-3-(2-(2-fluorophenyl)-6-(4-methyloxazol-2-yl)-1H-imidazo[4,5-c]pyridin-1-yl)-2-hydroxycyclohexyl)benzamide]
> 7.00	O=C(N[C@H]1CCC[C@@H](n2c(-c3ccccc3F)nc3cnc(-c4nc[nH]n4)cc32)C1)c1cc(Cl)ccc1OC(F)F [compound 50]
> 7.00	O=C(N[C@H]1CCC[C@@H](n2c(-c3ncccc3OC(F)F)nc3cnc(-c4nc[nH]n4)cc32)C1)c1cc(Cl)ccn1 [compound 62]
> 7.00	CN1C[C@H](NC(=O)c2cc(Cl)ccn2)C[C@H](n2c(-c3ccccc3OCCO)nc3cnc(-c4ncco4)cc32)C1 [Example 161, 4-chloro-N-((3R,5S)-5-(2-(2-(2-hydroxyethoxy)phenyl)-6-(oxazol-2-yl)-1H-imidazo[4,5-c]pyridin-1-yl)-1-methylpiperidin-3-yl)picolinamide]
